Experimental data from patent publication US20240002442A1, “CYCLIC PEPTIDES WITH ANTIMICROBIAL PROPERTIES” (priority 2020, published 2024).
Values joined by “and” are separate entries in the source; they are usually repeats but may differ in a detail not shown here. Equal entries are not always repeated. Where two headings read alike, the source gives them in different places.

What was measured:
[1] = system: Pseudomonas aeruginosa PA01
[2] = system: Pseudomonas aeruginosa PA14
[3] = system: Escherichia coli ATCC 25922
[4] = system: Escherichia coli K-12 MG1655
[5] = system: Salmonella enterica typhimurium LT2A TCC 19585
[6] = system: Salmonella enterica Enteritidis AR496
[7] = system: Acinetobacter baumannii ATCC 19606
[8] = system: Klebsiella pneumoniae AR347
[9] = system: Yersinia pseudotuberculosis ATCC 6904
[10] = system: Photorhabdus australis DSM 17609
[11] = system: Burkholderia cenocepacia ATCC BAA-245
[12] = system: Enterobacter cloaceae ATCC 13047
[13] = system: Moraxella catarrhalis ATCC 25248
[14] = system: Shigella sonnei ATCC 25931
[15] = system: Vibrio vulnificus KLE δ-1125
[16] = system: Veillonella ratti KLE 2365
[17] = system: Bacteroides fragilis KLE 2244
[18] = system: Bacteroides stercoris KLE 2537
[19] = system: Staphylococcus aureus HG003
[20] = system: Limosilactobaccilus reuteri LTH5448
[21] = system: Clostridium bifermentans KLE 2329

Compound CC(C)C(NC(=O)C1NC(=O)C(CO)NC(=O)C(CC(N)=O)NC(=O)C(N)Cc2c[nH]c3cc(ccc23)C1C(N)=O)C(=O)NC1Cc2cn(cn2)C(c2ccc(O)cc2)C(C(=O)NC(CCCNC(=N)N)C(=O)NC(Cc2ccccc2)C(=O)O)NC(=O)C(CO)NC1=O (stereo not shown) [Formula (I)] has an MIC ([1]; Pseudomonas aeruginosa PA01) of 8 µg/mL, an MIC ([2]; Pseudomonas aeruginosa PA14) of 16 µg/mL and an MIC (Escherichia coli MG1655; Escherichia coli MG1655) of 16 µg/mL. It also gave an MIC (Escherichia coli AR350) of 8 µg/mL, an MIC [3] of 8 µg/mL and an MIC [4] of 16 µg/mL. It also gave an MIC [5] of 8 µg/mL, an MIC [6] of 8 µg/mL and an MIC ([7]; Acinetobacter baumannii ATCC 19606) of 16 µg/mL. It also gave an MIC [8] of 64 µg/mL, an MIC (Proteus mirabilis H14320; Proteus mirabilis H14320) of 64 µg/mL and an MIC (Proteus mirabilis BB2000; Proteus mirabilis BB2000) of 125 µg/mL. The MIC ([9]; ATCC 6904) was 8 µg/mL, the MIC ([10]; Photorhabdus australis DSM 17609 (producer strain; listed twice)) was 250 µg/mL and >128 µg/mL and the MIC [11] was >1000 µg/mL. It also gave an MIC [12] of 16 µg/mL, an MIC [13] of 2 µg/mL and an MIC [14] of 4 µg/mL. The MIC [15] was 8 µg/mL, the MIC [16] was 16 µg/mL and the MIC [17] was >128 µg/mL. For the same compound, the MIC [18] was >128 µg/mL, the MIC ([19]; Staphylococcus aureus HG003) was >1000 µg/mL and the MIC (Bacillus subtilis 168; Bacillus subtilis 168) was >1000 µg/mL. For the same compound, the MIC [20] was >128 µg/mL and the MIC [21] was >128 µg/mL.
In the case of CC(C)C(NC(=O)C1NC(=O)C(CO)NC(=O)C(CC(N)=O)NC(=O)C(NC(=O)C(CO)NC(=O)C2CCCN2)Cc2c[nH]c3cc(ccc23)C1C(N)=O)C(=O)NC1Cc2cn(cn2)C(c2ccc(O)cc2)C(C(=O)NC(CCCNC(=N)N)C(=O)NC(Cc2ccccc2)C(=O)O)NC(=O)C(CO)NC1=O (stereo not shown) [Formula (III)], the MIC [1] is reported as 16 µg/mL, the MIC ([2]; PA14) is reported as 32 µg/mL and the MIC (Escherichia coli MG1655; MG1655) is reported as 8 µg/mL. The MIC (Escherichia coli AR350) was 16 µg/mL, the MIC [6] was 32 µg/mL and the MIC ([7]; ATCC 19606) was 8 µg/mL. It also gave an MIC [8] of 125 µg/mL, an MIC (Proteus mirabilis H14320; H14320) of 32 µg/mL and an MIC (Proteus mirabilis BB2000; BB2000) of 64 µg/mL. The MIC ([9]; Yersinia pseudotuberculosis ATCC 6904) was 16 µg/mL, the MIC ([10]; DSM 17609) was 500 µg/mL and the MIC [11] was >1000 µg/mL. For the same compound, the MIC ([19]; HG003) was >1000 µg/mL and the MIC (Bacillus subtilis 168; 168) was >1000 µg/mL.
